Experimental data as given in PubChem BioAssay AID248 (DTP/NCI, 2004).
“And” between values parts separate entries of the source, which are not always exact repeats. Equal values may be shown once. Toxic doses and inconclusive results are not listed. Rule as the data show it: active = T/C of 150% or more; inactive = T/C below 125%.

Test system: L1210 leukemia ip in BDF1 mice, survival T/C
Test: NCI In Vivo Anticancer Drug Screen. Data for tumor model L1210 Leukemia (intraperitoneal) in B6D2F1 (BDF1) mice
Settings: endpoint: mean survival time, higher = longer survival
Summary of the method: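 Tumor cells were implanted, animals were treated, and survival was followed. The result divides the treated measurement by the vehicle-control measurement.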

[1] = dose: 100.0 mg/kg/injection, schedule: Q01DX009 (ip), vehicle: Klucel (hydroxypropylcellulose) (HPC)
[2] = dose: 200.0 mg/kg/injection, schedule: Q01DX009 (ip), vehicle: Klucel (hydroxypropylcellulose) (HPC)
[3] = dose: 12.5 mg/kg/injection, schedule: Q01DX009 (ip), vehicle: saline
[4] = dose: 25.0 mg/kg/injection, schedule: Q01DX009 (ip), vehicle: saline
[5] = dose: 25.0 mg/kg/injection, schedule: Q04DX003 (ip), vehicle: saline
[6] = dose: 50.0 mg/kg/injection, schedule: Q01DX009 (ip), vehicle: saline
[7] = dose: 50.0 mg/kg/injection, schedule: Q04DX003 (ip), vehicle: saline
[8] = dose: 100.0 mg/kg/injection, schedule: Q04DX003 (ip), vehicle: saline
[9] = dose: 100.0 mg/kg/injection, schedule: Q01DX001 (ip), vehicle: saline
[10] = dose: 200.0 mg/kg/injection, schedule: Q01DX001 (ip), vehicle: saline
[11] = dose: 400.0 mg/kg/injection, schedule: Q01DX001 (ip), vehicle: saline
[12] = dose: 50.0 mg/kg/injection, schedule: Q01DX009 (ip), vehicle: Klucel (hydroxypropylcellulose) (HPC)
[13] = dose: 12.5 mg/kg/injection, schedule: Q01DX009 (ip), vehicle: Klucel (hydroxypropylcellulose) (HPC)
[14] = dose: 25.0 mg/kg/injection, schedule: Q01DX009 (ip), vehicle: Klucel (hydroxypropylcellulose) (HPC)
[15] = dose: 100.0 mg/kg/injection, schedule: Q01DX001 (ip), vehicle: carboxymethylcellulose (CMC)
[16] = dose: 200.0 mg/kg/injection, schedule: Q01DX001 (ip), vehicle: carboxymethylcellulose (CMC)
[17] = dose: 400.0 mg/kg/injection, schedule: Q01DX001 (ip), vehicle: carboxymethylcellulose (CMC)

Measured: T/C

CCCCCCCCO/N=C\c1c2c(O)c3c(O)c(C)c4c(c3c1O)C(=O)C(C)(O/C=C\C(OC)C(C)C(OC(C)=O)C(C)C(O)C(C)C(O)C(C)/C=C\C=C(\C)C(=O)N2)O4 (centres undefined)
inactive: dose: 50.0 mg/kg/injection, schedule: Q04DX003 (ip), vehicle: water 96 % of control | [1] 106 % of control | dose: 100.0 mg/kg/injection, schedule: Q04DX003 (ip), vehicle: water 100 % of control | [2] 89 % of control | dose: 200.0 mg/kg/injection, schedule: Q04DX003 (ip), vehicle: water 98 % of control | dose: 400.0 mg/kg/injection, schedule: Q04DX003 (ip), vehicle: water 104 % of control

C[N+]1(C)C2CSCC1CC(O)C2 (centres undefined)
inactive: [3] 105 % of control | dose: 12.5 mg/kg/injection, schedule: Q04DX003 (ip), vehicle: saline 104 % of control | [4] 117 % of control | [5] 98 % of control | [6] 106 % of control | [7] 102 % of control | [8] 101 % of control

COc1ccc(-c2[nH]c3ccccc3c2-c2ccc(OC)cc2)cc1
inactive: [9] 89 % of control | [10] 89 % of control | [11] 95 % of control

c1csc(CNCCN2CC2)c1
inactive: dose: 2.5 mg/kg/injection, schedule: Q01DX009 (ip), vehicle: saline 89 % of control | dose: 2.5 mg/kg/injection, schedule: Q04DX003 (ip), vehicle: saline 95 % of control | dose: 5.0 mg/kg/injection, schedule: Q04DX003 (ip), vehicle: saline 103 % of control | dose: 10.0 mg/kg/injection, schedule: Q04DX003 (ip), vehicle: saline 100 % of control

C=C1C(=O)OC2C1C(OC(=O)/C(=C/C)COC(C)=O)CC1(CO1)C1C(OC(=O)/C(=C/C)CO)C=C(C)C21 (centres undefined)
inactive: [12] 93 % of control | [1] 93 % of control | [2] 86 % of control

NC(=O)NC1CC1c1ccccc1 (centres undefined)
inactive: [9] 101 % of control | [10] 95 % of control | [11] 120 % of control

C/C(=N/N(C)C)c1cccc(N)c1
inactive: [9] 98 % of control | [10] 93 % of control | [11] 101 % of control

Cn1cc(NC(=O)c2cc(NC(=O)c3cc(NC=O)cn3C)cn2C)cc1C(=O)NCCC(=N)N
inactive: [13] 95 % of control | [14] 98 % of control | dose: 25.0 mg/kg/injection, schedule: Q01DX Z (ip), vehicle: water 100 % of control | [12] 92 % of control | dose: 50.0 mg/kg/injection, schedule: Q01DX Z (ip), vehicle: water 104 % of control | dose: 75.0 mg/kg/injection, schedule: Q01DX Z (ip), vehicle: water 104 % of control | dose: 100.0 mg/kg/injection, schedule: Q01DX Z (ip), vehicle: water 100 % of control

O=C1C=CC(=O)N1C(c1ccccc1)c1ccccc1
inactive: [13] 102 % of control | [14] 102 % of control | [12] 102 % of control | dose: 50.0 mg/kg/injection, schedule: Q04DX002 (ip), vehicle: Klucel (hydroxypropylcellulose) (HPC) 94 % of control | dose: 100.0 mg/kg/injection, schedule: Q04DX002 (ip), vehicle: Klucel (hydroxypropylcellulose) (HPC) 88 % of control | dose: 200.0 mg/kg/injection, schedule: Q04DX002 (ip), vehicle: Klucel (hydroxypropylcellulose) (HPC) 101 % of control and 116 % of control and 91 % of control | dose: 400.0 mg/kg/injection, schedule: Q04DX002 (ip), vehicle: Klucel (hydroxypropylcellulose) (HPC) 91 % of control

O=C(COc1ccc(Cl)c(Cl)c1)NCc1ccc[n+](Cc2ccc(S(=O)(=O)F)c(Cl)c2)c1
inactive: [5] 106 % of control | [7] 106 % of control | [8] 92 % of control and 98 % of control

CCOC1Cc2ccccc21 (centres undefined)
inactive: dose: 100.0 mg/kg/injection, schedule: Q04DX003 (ip), vehicle: saline with Tween-80 95 % of control | dose: 200.0 mg/kg/injection, schedule: Q04DX003 (ip), vehicle: saline with Tween-80 96 % of control | dose: 400.0 mg/kg/injection, schedule: Q04DX003 (ip), vehicle: saline with Tween-80 98 % of control

COc1ccc([I+]c2ccccc2C(=O)[O-])cc1OC
inactive: dose: 50.0 mg/kg/injection, schedule: Q01DX001 (ip), vehicle: saline 98 % of control | [9] 96 % of control | [10] 104 % of control | [11] 98 % of control

CC(=O)Nc1ccc(Br)cc1[N+](=O)[O-]
inactive: dose: 100.0 mg/kg/injection, schedule: Q01DX009 (ip), vehicle: acetone 92 % of control | dose: 200.0 mg/kg/injection, schedule: Q01DX009 (ip), vehicle: acetone 106 % of control | dose: 400.0 mg/kg/injection, schedule: Q01DX009 (ip), vehicle: acetone 101 % of control

COC(=O)c1c(C)ccc2c(O)c3c(cc12)C(=O)c1c2c(cc(O)c1C3=O)C1(C)OC(C)(O2)C(O)C(N(C)C)C1O (centres undefined)
inactive: [4] 96 % of control | [6] 96 % of control | dose: 100.0 mg/kg/injection, schedule: Q01DX009 (ip), vehicle: saline 104 % of control | dose: 200.0 mg/kg/injection, schedule: Q01DX009 (ip), vehicle: saline 98 % of control | dose: 400.0 mg/kg/injection, schedule: Q01DX009 (ip), vehicle: saline 102 % of control

Nc1ccccc1C1OCCO1
inactive: dose: 50.0 mg/kg/injection, schedule: Q01DX001 (ip), vehicle: carboxymethylcellulose (CMC) 95 % of control | [15] 95 % of control | [16] 95 % of control | [17] 101 % of control

CCCCCCCCCCCCCCCCS(=O)(=O)CCO
inactive: dose: 100.0 mg/kg/injection, schedule: Q01DX009 (ip), vehicle: saline with Tween-80 98 % of control | dose: 200.0 mg/kg/injection, schedule: Q01DX009 (ip), vehicle: saline with Tween-80 93 % of control | dose: 400.0 mg/kg/injection, schedule: Q01DX009 (ip), vehicle: saline with Tween-80 92 % of control

CCc1ccc(N=Nc2ccc(-c3ccc(NC(C)=O)cc3)cc2)cc1
inactive: [15] 94 % of control | [16] 102 % of control | [17] 105 % of control

CC1(C)N=C(N)N=C(N)N1c1ccc(CC(=O)Nc2cccc(S(=O)(=O)F)c2)cc1
inactive: dose: 6.25 mg/kg/injection, schedule: Q#A X018 (ip), vehicle: saline 105 % of control | [3] 103 % of control | dose: 12.5 mg/kg/injection, schedule: Q#A X018 (ip), vehicle: saline 111 % of control | [4] 111 % of control | [6] 117 % of control and 118 % of control | dose: 50.0 mg/kg/injection, schedule: Q#A X018 (ip), vehicle: saline 118 % of control | [9] 100 % of control | [10] 102 % of control
